Active and inactive are the calls of the source. The rule behind the calls is not given here. Some results are limits rather than exact numbers.

Chain of Serine/threonine-protein kinase mTOR (Homo sapiens) (P42345 2015-2114): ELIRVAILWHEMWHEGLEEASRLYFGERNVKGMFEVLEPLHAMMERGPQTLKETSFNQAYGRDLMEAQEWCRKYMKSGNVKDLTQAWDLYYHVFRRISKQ

The assay addresses Serine/threonine-protein kinase mTOR (Homo sapiens) (UniProt P42345). As to the kind of experiment: mTOR FRB domain ligand binding – biophysical, NMR (AID 1648). The following applies: NMR binding to FRB domain, chemical shift.
One may read the Kd as a measure of binding affinity in units of concentration. For the compound `CCC(C)C(=O)O[C@H]1[C@H](O)C2C(CN3CC(C)CCC3[C@@]2(C)O)C2C[C@]34O[C@]5(O)C(OC(=O)C(C)(O)CC)CC[C@@]3(C)C5C(OC(C)=O)[C@@H](OC(C)=O)C4[C@@]21O` (some centres not stated), the Kd is > 4 mM (inactive). In the case of `Oc1cc2c(cc1O)C1c3ccc(O)c(O)c3OCC1(O)C2` (configuration not stated) it was > 4 mM (inactive); in that of `COc1ccc(C(C)=O)c(O)c1`, > 4 mM (inactive); in that of `COc1c2ccoc2c(OC)c2oc(=O)ccc12`, > 4 mM (inactive). In the case of `O=C(Nc1ccon1)c1csc2c1CCCC2` it was > 4 mM (inactive); in that of `CCOC(=O)c1ccc2c(c1)nnn2C`, > 4 mM (inactive); in that of `Nc1nc2ccc(S(N)(=O)=O)cc2s1`, > 4 mM (inactive).

On to `NS(=O)(=O)c1ccc(NC(=O)C2CC2)cc1`, for which the Kd is > 4 mM (inactive). The figure for `Cc1ccc2c(c1)CC[C@H]1CC(=O)CC[C@]21C` is > 4 mM (inactive); for `Nc1ccc(N2CCOCC2)cc1` it is > 4 mM (inactive). On to `COc1ccc(-c2coc3cc(OC(C)=O)cc(OC(C)=O)c3c2=O)cc1`, for which the Kd was > 4 mM (inactive). Regarding `Cc1sc2nc[nH]c(=S)c2c1C`, the Kd was > 4 mM (inactive). With `N#Cc1cc2c(nc1SCc1ccncc1)CCC2`, the Kd is > 4 mM (inactive).

Regarding `O=C(Nc1ccc2c(c1)OCO2)c1c(F)cccc1F`, the Kd was > 4 mM (inactive). In the case of `OCc1ccc2c(c1)OCO2` it was > 4 mM (inactive). The figure for `Nc1ncnc(Cl)c1[N+](=O)[O-]` is > 4 mM (inactive); for `Clc1ccc(-n2ccnc2)nn1` it is > 4 mM (inactive); for `COc1ccc(-c2ccc(OC)cc2C(=O)O)cc1` it is > 4 mM (inactive). In the case of `CCOC(=O)c1c(C)cc(O)c(C=O)c1O` it was > 4 mM (inactive). Take `Cc1ccc(-c2nnn(CC(=O)O)n2)cc1`: the Kd was > 4 mM (inactive). Turning to `CN(C)c1nc(N)nc(-c2nc3ccccc3s2)n1`, the Kd is > 4 mM (inactive). In the case of `CCN1C(=O)c2c(C)nc3ccccc3c2C1=O` it was > 4 mM (inactive); in that of `Cn1nnc2cc(CN)ccc21`, > 4 mM (inactive). The figure for `O=[N+]([O-])c1cccc(-c2c[n+](=O)c3c(n2[O-])CCC3)c1` is > 4 mM (inactive); for `CC1=C2C(O)C(=O)OC3CC4C(C)(C)C(=O)C=C[C@]4(C)C(CC1)[C@]23C` (some centres not stated) it is > 4 mM (inactive). In the case of `Cn1c(CNc2ccccc2)cc(=O)n(C)c1=O` it was > 4 mM (inactive). Take `Cc1ccc(C(=O)N2CCOCC2)cc1Cl`: the Kd is > 4 mM (inactive).

Consider `O=C(CN1C(=O)c2cccc3cccc(c23)C1=O)NO`, for which the Kd was > 4 mM (inactive). The figure for `OCc1cc2ccccc2o1` is > 4 mM (inactive); for `CC(CCC(=O)O)[C@H]1CCC2C3CC[C@@H]4CCCC[C@]4(C)C3CC[C@@]21C` (some centres not stated) it is > 4 mM (inactive). The figure for `COc1ccc2c(c1OC)C(=O)O[C@H]2[C@H]1c2cc3c(cc2CCN1C)OCO3` is > 4 mM (inactive). With `Cc1cc(NC(=O)CSc2ccnc(=O)[nH]2)no1`, the Kd is > 4 mM (inactive). Consider `Cc1cc(C(=O)Nc2ccc3c(c2)OCCO3)c(C)o1`, for which the Kd was > 4 mM (inactive). The figure for `CON(C)C(=O)Nc1ccc(Cl)cc1` is > 4 mM (inactive).

`CCC(CO)NC(=O)c1snnc1C` (configuration not stated): the Kd is > 4 mM (inactive). In the case of `C=C[C@@](C)(O)CCC1C(=C)C[C@H](O)C2C(C)(C)CCCC12C` (some centres not stated) it was > 4 mM (inactive); in that of `Cc1ccc(S(=O)(=O)CC(N)=O)cc1`, > 4 mM (inactive); in that of `O=[n+]1cc(-c2ccccc2)n([O-])c2c1CCC2`, > 4 mM (inactive). The figure for `Cc1nc2ccccc2c(=O)n1NC(=O)Nc1ccccc1` is > 4 mM (inactive); for `O=S1(=O)CCC2CC=CCC21` (configuration not stated) it is > 4 mM (inactive). In the case of `COc1ccc(/C=C2/C(=O)N=C(N)N2C)cc1OC`, the Kd is > 4 mM (inactive). The figure for `Cc1cc(C)cc(OC(=O)N2CCOCC2)c1` is > 4 mM (inactive); for `C=C(C)C1CC=C(CO)CC1` (configuration not stated) it is > 4 mM (inactive). On to `O=C(/C=C/c1ccc(O)cc1)c1ccc(O)cc1O`, for which the Kd is > 4 mM (inactive). In the case of `Cc1nc(NC(=O)c2cccnc2)ccc1Br` it was > 4 mM (inactive). On to `Cc1ccccc1-n1c(-c2cccnc2)n[nH]c1=S`, for which the Kd was > 4 mM (inactive). In the case of `COc1cc(O)c(C(C)=O)c(OC)c1` it was > 4 mM (inactive); in that of `CC(=O)N=c1cccc(NC(C)=O)n1O`, > 4 mM (inactive); in that of `CC(=O)OC1CCC23C(=O)OC45CCC(C6=CC(=O)OC6)C4(C)CCC2C5CCC3(O)C1` (configuration not stated), > 4 mM (inactive).

In the case of `[O-][n+]1onc2c1CCc1c-2nc(-c2ccccc2)n1O`, the Kd was > 4 mM (inactive). The figure for `C[C@H]1[C@H](C)CC[C@]2(C(=O)O)CC[C@]3(C)C(=CCC4[C@@]5(C)C[C@@H](O)[C@H](O)[C@@](C)(CO)C5[C@H](O)C[C@]43C)[C@H]12` (some centres not stated) is > 4 mM (inactive); for `CCNC(CC(=O)Nc1ccc(O)cc1)C(=O)O` (configuration not stated) it is > 4 mM (inactive). Regarding `O=c1cnnc(Nc2ccc(O)cc2)[nH]1`, the Kd was > 4 mM (inactive). In the case of `CNC(=O)n1ccc(C(=O)N2CCCCC2)n1` it was > 4 mM (inactive); in that of `CC12CNCC(C)(CNC1)C2O` (configuration not stated), > 4 mM (inactive); in that of `CC(C)n1c(-c2ccncc2)n[nH]c1=S`, > 4 mM (inactive). In the case of `O=C(NC1=NCCS1)c1cccc(F)c1` it was > 4 mM (inactive). In the case of `Cn1nc(C(=O)Nc2cccnc2)c2ccccc2c1=O` it was > 4 mM (inactive). Consider `O=C(CS(=O)(=O)c1ccccc1)Nc1nccs1`, for which the Kd was > 4 mM (inactive).

Turning to `S=C(NCc1ccco1)NN1CCOCC1`, the Kd was > 4 mM (inactive). In the case of `COc1ccc(NC(=O)/C=N/O)cc1` it was > 4 mM (inactive); in that of `CC1O[C@@H](Oc2c(-c3ccc(O)c(O)c3)oc3cc(O)cc(O)c3c2=O)[C@H](O)[C@H](O)[C@H]1O` (some centres not stated), > 4 mM (inactive); in that of `CCc1c(C(=O)Nc2ccncc2)csc1C`, > 4 mM (inactive). The figure for `CC(O)C(=O)N/N=C/c1ccccc1` (configuration not stated) is > 4 mM (inactive); for `COc1ccc(-c2nnc(-c3ccc(N)cc3)o2)cc1` it is > 4 mM (inactive); for `CC1=CCc2c(cc3oc(C)cc(=O)c3c2O)OC1` it is > 4 mM (inactive). In the case of `CCCCCC(=O)Cc1cc(O)cc(O)c1C(=O)Oc1cc(CC(=O)CCCCC)c(C(=O)O)c(OC)c1` it was > 4 mM (inactive). With `NC(=O)c1ccsc1NC(=O)c1cccnc1`, the Kd was > 4 mM (inactive). The figure for `CN(C)c1ccc(/C=C2/NC(=S)NC2=O)cc1` is > 4 mM (inactive). `O=C1C2C3CCC(O3)C2C(=O)N1c1ccccc1` (configuration not stated): the Kd was > 4 mM (inactive).

Consider `Cc1nnc(N2CCN(c3ccccc3)CC2)[nH]c1=O`, for which the Kd was > 4 mM (inactive). For `CC(=O)Oc1cccc2ccc(=O)[nH]c12`, the Kd was > 4 mM (inactive). In the case of `COC(=O)c1c(C)cc(OC(=O)c2c(C)cc(O)c(C=O)c2O)c(C)c1O` it was > 4 mM (inactive). In the case of `O=C(Nc1nnc(-c2ccncc2)o1)c1cccs1` it was > 4 mM (inactive).

For the compound `CC(=O)NC(=S)Nc1ccc(S(N)(=O)=O)cc1`, the Kd is > 4 mM (inactive). Regarding `CNC(=O)c1c(O)c2ccccc2[nH]c1=O`, the Kd was > 4 mM (inactive). In the case of `OCc1nc2ccccc2s1` it was > 4 mM (inactive); in that of `CC(C)(C)C(=O)Nc1ncc(C(F)(F)F)cc1Cl`, > 4 mM (inactive). The figure for `N#Cc1cc(-c2ccccc2)oc1N` is > 4 mM (inactive). In the case of `CCC(=O)NC(=S)Nc1ccc(C(N)=O)cc1` it was > 4 mM (inactive); in that of `Fc1cccc(Cl)c1CN1CCCNCC1`, > 4 mM (inactive); in that of `O=C(O)CN1CCNCC1`, > 4 mM (inactive). Consider `CCCNC(=O)c1cnc2n(c1=O)CCS2`, for which the Kd is > 4 mM (inactive). As to `CCN1C(=O)N(CO)C2C1N(C)C(=O)N2C` (configuration not stated), the Kd is > 4 mM (inactive). The figure for `NC(CCC(=O)Nc1ccc([N+](=O)[O-])cc1)C(=O)O` (configuration not stated) is > 4 mM (inactive). For `CN1C(=O)c2ccc(C(=O)NC3CCCCC3)cc2C1=O`, the Kd is > 4 mM (inactive). Turning to `CCOC(=O)c1cc(C)n(-n2cnnc2)c1C`, the Kd is > 4 mM (inactive). The figure for `CC1(C)NCCN2C(=O)CSC21` (configuration not stated) is > 4 mM (inactive); for `Cc1ccc2cc(CO)ccc2n1` it is > 4 mM (inactive). In the case of `Cc1nc2ccc(NC(=O)N3CCOCC3)cc2s1` it was > 4 mM (inactive); in that of `c1ccc(SCc2nc(-c3ccncc3)no2)cc1`, > 4 mM (inactive). Regarding `NC(=O)CSc1nc2ccccc2o1`, the Kd was > 4 mM (inactive). The figure for `CC(C)c1c(O)c(-c2cc3c(c(C(C)C)c2O)CCC2C(C)(C)CCC[C@]32C)cc2c1CCC1C(C)(C)CCC[C@]21C` (some centres not stated) is > 4 mM (inactive). Take `CC1(C)SCC(C(=O)O)N1C=O` (configuration not stated): the Kd is > 4 mM (inactive).

As for `O=C(NCc1n[nH]c(=O)c2ccccc12)C1CC1`, the Kd is > 4 mM (inactive). The figure for `Fc1ccc(N2CCNCC2)cc1` is > 4 mM (inactive); for `Cc1cc2c(=O)n(C)c(SCC(N)=O)nc2s1` it is > 4 mM (inactive). `O=C(c1ccccc1)c1ccc(N2CCNCC2)cc1`: the Kd is > 4 mM (inactive).

Turning to `NS(=O)(=O)c1ccc(N=Cc2ccc[nH]2)cc1`, the Kd was > 4 mM (inactive). The figure for `O=C(O)c1cc2ccccc2o1` is > 4 mM (inactive); for `OCC(O)Cc1ccc2c(c1)OCO2` (configuration not stated) it is > 4 mM (inactive); for `NC(=O)CSc1nc2[nH]ncc2c(=O)[nH]1` it is > 4 mM (inactive).

These data come from PubChem BioAssay AID1648 (Sanford-Burnham Center for Chemical Genomics, 2009).
